Laboratory results taken from patent US9617256B2 (priority 2007, dated 2017).
≈ marks a conversion by molar mass, not a printed value. Like-named read-outs stand apart in the source and are kept apart here.

Assays:
[1] = test system: AABA1060 (clinical isolate of Acinetobacter baumannii); assay: MIC broth microdilution, AABA1060; type: cell-based; conditions: Acinetobacter baumannii, read-out: MIC AABA1060
Outline: (§1)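 Strains were grown overnight at 35° C. on Mueller-Hinton agar, suspended to 0.5 McFarland and diluted to a final 3×10^5–7×10^5 CFU/mL. They were then exposed to 2-fold serial drug dilutions in cation-adjusted Mueller-Hinton broth and incubated 18-24 hours at 35° C.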

[2] = test system: APAE006 (strain of P. aeruginosa in which all efflux pumps are inactivated); assay: microbe, parasite or virus in culture; type: cell-based; conditions: Pseudomonas aeruginosa
Outline: (§2)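 For the efflux-deficient P. aeruginosa APAE006, one set of MICs includes polymyxin B nonapeptide at 8 micrograms per milliliter.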

[3] = test system: AECO001 (ATCC25922); assay: MIC broth microdilution, AECO001; type: cell-based, E. coli; conditions: for MIC: Escherichia coli; for Ratio of MICs on AECO001 [Cpd (A = —CHCH3NH2)/Cpd (A = —C(CH3)2NH2)]: MIC of paired compound with A = —CHCH3NH2 divided by MIC of compound with A = —C(CH3)2NH2, n=2 data, pairs identical except for the A moiety
Outline: as §1

[4] = test system: APAE001 (ATCC27853); assay: MIC broth microdilution, APAE001; type: cell-based, P. aeruginosa; conditions: Pseudomonas aeruginosa
Outline: as §1

[5] = test system: ATCC43816; assay: Neutropenic thigh efficacy model; type: in vivo, mice; conditions: for Ratio of thigh static doses: neutropenic thigh model, compound with A = —C(CH3)2NH2 versus paired compound with A = —C(CH3)2OH, ratio >1 means the —C(CH3)2NH2 compound had a lower static dose; for Ratio of thigh static dose normalized to MICs: ratio of neutropenic thigh static doses normalized to the MIC ratio on ATCC43816, —C(CH3)2NH2 compound versus paired —C(CH3)2OH compound
Experimental: Mice were rendered neutropenic prior to infection with 2 doses of cyclophosphamide, and then infected intramuscularly in the thigh with 10^5-10^6 CFU of bacteria. See Gudmundsson S., Erlensdottir H., “Murine Thigh Infection Model” Handbook of Animal Models of Infection, M. A. Sande and O. Zak, Eds.; London: Academic Press, 1999, pp 137-144. Antibiotics or vehicle alone as a negative control were administered twice at 2 hrs and 14 hrs post-infection. At 24 hrs post-infection, thighs were harvested, homogenized, and plated to measure the number of CFUs surviving per thigh. Thighs from a subset of animals were also harvested 2 hrs post-infection to record the CFUs present just prior to the first antibiotic treatment (pre-treatment). The static dose, defined as the dose required to result in a CFU load at 24 hours that is identical to that measured at 0 hours post infection, was calculated by standard methods in Prizm from a dose response curve.
(§3) As shown in the following Table 3, three pairs of compounds were tested in the neutropenic thigh efficacy model. For each pair of compounds, the compounds were identical in structure except for the A moiety. More specifically, A is —C(CH3)2NH2 in one compound and A is —C(CH3)2OH in the other compound. […] In addition, the ratios of the MICs of each pair of compounds on the infecting strain (ATCC43816) was calculated.

[6] = test system: APAE006 in the presence of 8 micrograms per milliliter of polymyxin B nonapeptide; type: cell-based, P. aeruginosa
Outline: as §2

[7] = test system: ATCC43816; assay: MIC broth microdilution, infecting strain ATCC43816; type: cell-based; conditions: ratio >1 means the —C(CH3)2NH2 compound had a lower MIC than the paired —C(CH3)2OH compound
Experimental: Minimum Inhibitory Concentrations (MICs) were determined by the broth microdilution method in accordance with the Clinical and Laboratory Standards Institute (CLSI) guidelines. In brief, organism suspensions were adjusted to a 0.5 McFarland standard to yield a final inoculum between 3×10^5 and 7×10^5 colony-forming units (CFU)/mL. Drug dilutions and inocula were made in sterile, cation adjusted Mueller-Hinton Broth (Beckton Dickinson). An inoculum volume of 100 μL was added to wells containing 100 μL of broth with 2-fold serial dilutions of drug. All inoculated microdilution trays were incubated in ambient air at 35° C. for 18-24 hours. Following incubation, the lowest concentration of the drug that prevented visible growth (OD600 nm<0.05) was recorded as the MIC. Performance of the assay was monitored by the use of laboratory quality-control strains and levofloxacin, a compound with a defined MIC spectrum, in accordance with CLSI guidelines. Typically, compounds of the present invention have MIC values of […].
as §3

[8] = test system: AECO063 (ATCC25922 bearing an acrAB mutation); assay: microbe, parasite or virus in culture; type: cell-based, E. coli; conditions: Escherichia coli, ATCC25922, read-out: MIC AECO063
Outline: as §1

[9] = test system: ASAU001 (laboratory strain of S. aureus, ATCC29213); assay: MIC broth microdilution, ASAU001; type: cell-based; conditions: Staphylococcus aureus, ATCC29213, read-out: MIC ASAU001
Outline: as §1

[10] = test system: AECO001 HSA AGP; assay: MIC broth microdilution, AECO001 HSA AGP; type: cell-based, E. coli; conditions: Escherichia coli
Outline: as §1

[11] = read-out: MIC APAE006, APAE006, all efflux pumps inactivated
[12] = ATCC25922, read-out: MIC AECO001
[13] = ATCC25922, read-out: MIC AECO001 HSA AGP
[14] = ATCC27853, read-out: MIC APAE001, APAE001 (ATCC27853)
[15] = APAE006 with 8 micrograms per milliliter polymyxin B nonapeptide
[16] = read-out: MIC APAE006, P. aeruginosa, all efflux pumps inactivated
[17] = ATCC27853, read-out: MIC APAE001, APAE001 is ATCC27853
[18] = in the presence of 8 micrograms per milliliter of polymyxin B nonapeptide

| Structure (SMILES) | MIC [1] [µg/mL] | MIC [2, 11] [µg/mL] | MIC [3, 12] [µg/mL] | MIC [3, 13] [µg/mL] | Ratio of MICs on AECO001 [Cpd (A = —CHCH3NH2)/Cpd (A = —C(CH3)2NH2)] [3] | MIC [4, 14] [µg/mL] | Ratio of thigh static doses [5] [x] | Ratio of thigh static dose normalized to MICs [5] [x] | MIC APAE006 + PMBN [6, 15] | Ratio of MICs on ATCC43816 [Cpd (A = —CH(CH3)2OH/Cpd (A = —C(CH3)2NH2)]) [7] | MIC [8] [µg/mL] | MIC [9] [µg/mL] | melting point [°C] | MIC [2, 16] [µg/mL] | MIC [10] [µg/mL] | MIC [4, 17] [µg/mL] | MIC APAE006 + PMBN [6, 18] |
| --- | --- | --- | --- | --- | --- | --- | --- | --- | --- | --- | --- | --- | --- | --- | --- | --- | --- |
| CC(C)(N)[C@H](NC(=O)c1ccc(C#CC#Cc2cccs2)cc1)C(=O)NO [Example 88-13] | < 2 | < 2 | < 2 | < 2 | 4.1 | < 2 | >7 | >4.4 | A (MIC's of 2.0 μg/mL or less = A) | 1.6 | < 2 | 2 to 16 (≈ 5.24 to 41.9 µM) |  |  |  |  |  |
| CC(C)(N)[C@H](NC(=O)c1ccc(C#Cc2ccc(CN3CCCOCC3)cc2)cc1)C(=O)NO [Example 122-5] | < 2 | < 2 | < 2 | < 2 | 2.4 | < 2 | >2 | >4 | A (MIC's of 2.0 μg/mL or less = A) | 0.5 | < 2 | 16 to 64 (≈ 34.4 to 138 µM) |  |  |  |  |  |
| O=C(NO)[C@H]1[C@H](O)CCN1C(=O)c1ccc(OC(F)(F)F)cc1 |  |  |  |  |  |  |  |  |  |  |  |  | 64 to 65 |  |  |  |  |
| CC(C)(N)[C@H](NC(=O)c1ccc(C#CC#CC2CC2)cc1)C(=O)NO [Example 91-12] | < 2 | < 2 | < 2 | < 2 | 5.6 | < 2 | >3 | >3 | A (MIC's of 2.0 μg/mL or less = A) | 1.0 | < 2 | 2 to 16 (≈ 5.89 to 47.1 µM) |  |  |  |  |  |
| C[C@@H](O)[C@H](NC(=O)c1ccc(F)c(Br)c1)C(=O)NO |  |  |  |  |  |  |  |  |  |  |  |  | 152 to 153 |  |  |  |  |
| C[C@H](O)[C@H](NC(=O)c1ccc(/C=C/C#Cc2ccc(CN3CCOCC3)cc2)cc1)C(=O)NO [Example 110-5] | 2 to 16 (≈ 4.31 to 34.5 µM) |  | < 2 |  |  |  |  |  |  |  | < 2 | > 64 |  | < 2 | 2 to 16 (≈ 4.31 to 34.5 µM) | 2 to 16 (≈ 4.31 to 34.5 µM) | A (MIC's of 2.0 μg/mL or less = A) |
| C[C@@H](O)[C@H](NC(=O)c1ccc(/C=C/C#Cc2ccc(CN3CCOCC3)cc2)cc1)C(=O)NO [Example 30-12a] | 2 to 16 (≈ 4.31 to 34.5 µM) |  | < 2 |  |  |  |  |  |  |  | < 2 | > 64 |  | < 2 | < 2 | < 2 | A (MIC's of 2.0 μg/mL or less = A) |
| NC[C@H](NC(=O)c1ccc(C#C/C=C/c2ccccc2)cc1)C(=O)NO [Example 104-2] | 16 to 64 (≈ 45.8 to 183 µM) |  | < 2 |  |  |  |  |  |  |  | < 2 | 16 to 64 (≈ 45.8 to 183 µM) |  | < 2 | 2 to 16 (≈ 5.72 to 45.8 µM) | 2 to 16 (≈ 5.72 to 45.8 µM) | A (MIC's of 2.0 μg/mL or less = A) |
| C[C@@H](N)[C@H](NC(=O)c1ccc(C#Cc2ccc(CN3CCN(S(C)(=O)=O)CC3)cc2)cc1)C(=O)NO [Example 115-7] | 2 to 16 (≈ 3.89 to 31.2 µM) |  | < 2 |  |  |  |  |  |  |  | < 2 | > 64 |  | < 2 | 2 to 16 (≈ 3.89 to 31.2 µM) | 2 to 16 (≈ 3.89 to 31.2 µM) | A (MIC's of 2.0 μg/mL or less = A) |
| C[C@@H](N)[C@H](NC(=O)c1ccc(C#CC#Cc2ccc(N)cc2)cc1)C(=O)NO [Example 82-16] | < 2 |  | < 2 |  |  |  |  |  |  |  | < 2 | 16 to 64 (≈ 42.5 to 170 µM) |  | < 2 | 2 to 16 (≈ 5.31 to 42.5 µM) | < 2 | A (MIC's of 2.0 μg/mL or less = A) |
| CC(C)(O)[C@H](NC(=O)c1ccc(C#C/C=C/c2ccc(CNC3CC3)cc2)cc1)C(=O)NO [Example 102-5] | 2 to 16 (≈ 4.47 to 35.8 µM) |  | < 2 |  |  |  |  |  |  |  | < 2 | > 64 |  | < 2 | < 2 | < 2 | A (MIC's of 2.0 μg/mL or less = A) |
| C[C@@H](N)[C@H](NC(=O)c1ccc(C#Cc2cccnc2)cc1)C(=O)NO [Example 133-9] | 16 to 64 (≈ 47.3 to 189 µM) |  | 16 to 64 (≈ 47.3 to 189 µM) |  |  |  |  |  |  |  | 2 to 16 (≈ 5.91 to 47.3 µM) | > 64 |  | < 2 | 16 to 64 (≈ 47.3 to 189 µM) | 2 to 16 (≈ 5.91 to 47.3 µM) | A (MIC's of 2.0 μg/mL or less = A) |
